ChEMBL document CHEMBL3507680, “University of Dundee, Gates Library screen for HepG2 cell viability”

Assay: Human HepG2 cell viability assay in 384 well format
Assay type: toxicity, cell-based
Design: dose 125 nL, time 70.5 hour; cytotoxicity at 70.5 h: concentration not given beside the values
Conditions: HepG2 cells, read-out: Inhibition

SMILES | cytotoxicity at 70.5 h
Cn1cc(CN2CC[C@H]3OCC[C@@H](C(=O)NCc4ccco4)[C@@H]3C2)cn1 | -8%
Cn1cc(CN2CCc3onc(COCC4CC4)c3C2)cn1 | -12.8%
O=c1cc(Cn2ccnc2)nc2n1CCCN(Cc1ccc(F)cc1)C2 | -14.3%
O=c1cc(Cn2ccnc2)nc2n1CCCN(Cc1ccncc1)C2 | -21.3%
O=C(Nc1ccccc1)[C@H]1C[C@@H]2CN(C(=O)Nc3ccccc3)C[C@H]1O2 | -27.2%
CC(=O)N1CCN(C(=O)NC(C)C)CC2(CNC(=O)C2)C1 (stereo not given) | -28.3%
CCS(=O)(=O)N1CCN(C(=O)NC(C)C)CC2(CNC(=O)C2)C1 (stereo not given) | -26.5%
O=S1(=O)c2ccccc2OCC2(CCN(CCO)CC2)CN1CC1CC1 | -0.378%
CCS(=O)(=O)N1CCc2cc(C(=O)NC)c(NCC3CC3)nc2CC1 | -4.13%
COCCCNC(=O)CCn1ncc2c(Cl)cccc21 | -7.64%
O=C1c2cnc(N3CCCC3)nc2CN1CCc1ccc(Cl)cc1 | -6.15%
Cc1nn(C)c2cnn(Cc3ccc(C(=O)N4CCN(C)CC4)o3)c12 | 28.4%
CCn1nc(C)c2c1cnn2CCNS(C)(=O)=O | -6.31%
CCn1nc(C)c2c1cnn2CCNS(=O)(=O)CC | 3.21%
CCn1ncc(NC(=O)CCn2ncc3c(Cl)cccc32)c1C | 7.52%
COCCNC(=O)CCn1ncc2c(Cl)cccc21 | 16.6%
CCn1ccc(NC(=O)CCn2nc(C)c3ccccc32)n1 | -10.3%
CCn1nc(C)cc1NC(=O)CCn1nc(C)c2ccccc21 | -10.1%
CN(C)C(=O)c1nnc2ccc(N3CCOCC3)cc2n1 | -2.48%
O=C(NC1CCCCC1)c1nnc2ccc(N3CCOCC3)cc2n1 | -8.08%
COCCNC(=O)c1nnc2ccc(N3CCOCC3)cc2n1 | 23.1%
CNC(=O)c1nnc2ccc(N3CCOCC3)cc2n1 | -4.03%
Cc1nn(C)c(C)c1NC(=O)CCn1ncc2ccccc21 | 9.95%

SMILES | cytotoxicity at 70.5 h
CCn1ccc(C(=O)Nc2ccc3c(c2)C(C)(C)C(=O)N3C)n1 | -15.5%
CCCn1ccc(C(=O)Nc2ccc3c(c2)C(C)(C)C(=O)N3C)n1 | 13.3%
NCc1n[nH]c(-c2ccc(Br)cc2)n1 | 2.27%
CCn1nc(C)c2ncnc(N(C)Cc3ccco3)c21 | -1.38%
CCn1nc(C)c2ncnc(NCCCn3ccnc3)c21 | -9.37%
CCN(Cc1ccccc1)c1ncnc2c(C)nn(CC)c12 | -4.47%
CCn1nc(C)c2nc(C)nc(NC3CCCC3)c21 | -7.43%
CCn1nc(C)c2nc(C)nc(NCCc3ccccc3)c21 | 2.39%
CCc1nc(NCCCn2cccn2)c2c(n1)c(C)nn2CC | 14.8%
CCc1nc(Nc2cccc(C(=O)NC)c2)c2c(n1)c(C)nn2CC | -11%
CCn1nc(C)c2ncnc(NCCn3cccn3)c21 | -1.42%
CCCc1nc(NCC(=O)N2CCOCC2)c2c(n1)c(C)nn2CC | 44.1%
CCCc1nc(NCCOC)c2c(n1)c(C)nn2CC | -7.81%
Cc1nn(C)c2c(NC3CCCC3)nc(C3CC3)nc12 | -7.15%
COc1ccc(CNc2nc(C3CC3)nc3c(C)nn(C)c23)cc1 | -0.926%
CCn1nc(C)c2nc(C(C)C)nc(NCC(C)O)c21 (stereo not given) | -6.78%
CCn1nc(C)c2nc(C(C)C)nc(NCC(C)C)c21 | -8.62%
CCCc1nc(NCCCOCC)c2c(n1)c(C)nn2CC | -18.2%
CCCc1nc(N2CCC(C)CC2)c2c(n1)c(C)nn2CC | -10.6%
Cc1nn(C)c2c(N(C)Cc3cccs3)nc(C3CC3)nc12 | 22.5%
Cc1nn(C)c2c(NCc3ccncc3)nc(C3CC3)nc12 | 3.06%
CCn1nc(C)c2nc(C(C)C)nc(NCCc3ccc(O)cc3)c21 | -7.1%
CSc1ncnc(NCc2ccco2)c1C#N | -12.3%

SMILES | cytotoxicity at 70.5 h
Cc1cccc2c1cnn2CCCNC(=O)c1cnn(C)c1 | -2.01%
CCN(CC)C(=O)c1nnsc1-c1ccc(C)cc1 | -8.98%
Cc1ccc(-c2snnc2C(=O)NCCCO)cc1 | -11.1%
COc1cc(C(=O)NCCCO)cc2occc12 | -9.45%
CCOc1cc(C(=O)N2CCN(C)CC2)cc2occc12 | 3.95%
CCOC(=O)N1CCN(C(=O)c2cc(OCC)c3ccoc3c2)CC1 | 50%
CCOC(=O)C1CCN(C(=O)c2cc(OCC)c3ccoc3c2)CC1 | -10.7%
COCc1cccc(S(=O)(=O)Nc2ncc(C)s2)c1 | -12.2%
CSCc1cccc(S(=O)(=O)NCc2cnn(C)c2C)c1 | -2.3%
COCCNS(=O)(=O)c1cccc(CSC)c1 | 18.6%
CSCc1cccc(S(=O)(=O)N2CCCCCC2)c1 | -4.01%
CSCc1cccc(S(=O)(=O)N2CCCC2)c1 | -6.64%
CSCc1cccc(S(=O)(=O)N2CCCCC2)c1 | -6.14%
CCNS(=O)(=O)c1cccc(CSC)c1 | 5.32%
CCN(CC)c1nc(C)cc(C(=O)Nc2cccc(C(N)=O)c2)n1 | -7.03%
Cc1nn(C(C)C)c2cn(CC(=O)NC3CCSCC3)nc12 | -3.25%
COc1cccc(CNC(=O)c2cc(C)nc(N3CCCCC3)n2)c1 | -9.69%
Cc1cc(C(=O)NCc2cnn(C)c2C)nc(N2CCCCCC2)n1 | -3.96%
CCN1CCN(c2ncc3c(=O)n(Cc4ccco4)ccc3n2)CC1 | -5.38%
Oc1ccc(Cl)cc1CNCc1ccccc1Cl | -8.63%
Oc1ccc(Cl)cc1CNCc1ccccc1C(F)(F)F | -2.09%
Oc1ccc(Cl)cc1CNCc1cccc(C(F)(F)F)c1 | -12.9%
COc1cccc(CNCc2cccc(Cl)c2)c1O | -4.96%

SMILES | cytotoxicity at 70.5 h
COc1cccc(CNCc2ccc(F)cc2Cl)c1O | -1.41%
CSc1nc2ccsc2c(=O)n1CC(=O)NC1CCCCC1 | -6.83%
CSc1nc2ccsc2c(=O)n1CC(=O)N1CCCCC1C (stereo not given) | -9.11%
CSc1nc2ccsc2c(=O)n1CC(=O)N(C)c1ccccc1 | -4.9%
CCN(CC)C(=O)CSc1nc2cc(C)nc-2c(O)n1CC | 6.98%
Cc1cc2nc(SCC(=O)N3CCCC3)n(Cc3ccco3)c(O)c-2n1 | -8.29%
O=C(c1nn[nH]c1Nc1ccc(Cl)cc1)N1CCSCC1 | 9.23%
c1cnc(-c2nn3c(CN4CCCCCC4)nnc3s2)cn1 | -8.05%
Cc1cc(C(=O)N(C)Cc2cccs2)nc(N2CCOCC2)n1 | -0.782%
CCC(Oc1ccccc1)c1nn2c(CN(CC)CC)nnc2s1 (stereo not given) | -7.01%
Cc1cc2n(n1)[C@@H](C(F)(F)F)C[C@@H](C1CCCN(C(=O)C(C)C)C1)N2 (stereo not given in full) | -3.95%
CCCC(=O)N1CCC([C@@H]2C[C@H](C(F)(F)F)n3nc(C)cc3N2)CC1 | -6.51%
Cc1cc2n(n1)[C@@H](C(F)(F)F)C[C@@H](C1CCN(C(=O)C(C)C)CC1)N2 | -1.78%
O=C(CCc1cc(Cl)no1)N1CCC(c2cc3ncccc3cn2)CC1 | 0.563%
Cc1cc(C)nc(N2CCC(CNC(=O)c3cnccn3)CC2)n1 | 3.07%
Cc1cc(C)nc(N2CCC(CNC(=O)c3ccccn3)CC2)n1 | 2.6%
CCCN1C[C@H](NC(=O)c2cc(C)no2)[C@@H](c2ccc(OC)cc2)C1 | 0.817%
CC(=O)c1cc(C(=O)N2Cc3ccccc3OC3(CCOCC3)C2)cs1 | 6.07%
Cc1cnc(C(=O)N2Cc3ccccc3OC3(CCOCC3)C2)cn1 | 1.74%
Cc1cnc(C(=O)N2Cc3cc(Cl)ccc3OC3(CCOCC3)C2)cn1 | 1.54%
Nc1nonc1C(=O)N1Cc2ccccc2OC2(CCOCC2)C1 | 2.48%
O=C(CN1CCC(c2cc(=O)n3c(n2)CCCCC3)CC1)N1CCCC1 | 1.49%
CCS(=O)(=O)N1C[C@H]2CC[C@](O)(c3ccc(C)cc3)[C@H]2C1 | 2.5%

SMILES | cytotoxicity at 70.5 h
Cc1ccc([C@@]2(O)CC[C@@H]3CN(S(=O)(=O)C(C)C)C[C@@H]32)cc1 | 2.49%
O=C(Cc1ccccn1)N1CCC(c2noc(-c3ccncc3)n2)CC1 | 5.1%
Cc1csc2nc3n(c(=O)c12)CCN(Cc1c[nH]cn1)CC3 | 0.274%
COc1ccccc1CNC(Cc1cccs1)c1nc(C)c(C)s1 (stereo not given) | 8.5%
COc1ccc(CNC(Cc2cccs2)c2nc(C)c(C)s2)cc1OC (stereo not given) | 2.99%
COc1cccc(CNC(Cc2cccs2)c2nc(C)c(C)s2)c1OC (stereo not given) | -1.23%
Cc1ccc(C(=O)N2CCOCC3(CCN(C4CCOCC4)C3)C2)o1 (stereo not given) | -13.2%
CCN(C)c1ncnc2c1CCN(C(=O)Cc1ccccn1)CC2 | -9.09%
CNC(=O)c1cc2c(nc1NCC(C)C)CCN(c1ccncn1)CC2 | -0.746%
Fc1ccc(CN2CCn3cc(Cn4cccn4)nc3C2)cc1 | -20.8%
Cc1nc(CN2CC3(CCN(c4ncccn4)C3)CC2=O)cs1 (stereo not given) | -23.8%
COCCN1C[C@H]2[C@@H](C1)N(Cc1cnn(C)c1)CC[C@H]2OC | -11.3%
COc1ncccc1CN1C[C@@H]2COC[C@]2(CNS(C)(=O)=O)C1 | -13.2%
CNC(=O)c1cc2c(nc1NCC1CC1)CCN(CC1CC1)CC2 | -26.7%
c1cncc(OCc2noc3c2CN(Cc2ccsc2)CC3)c1 | 15.9%
CCc1ccc(CN2CCCn3c(nc(Cn4ccnc4)cc3=O)C2)o1 | -0.664%
CNC(=O)CN1CCOCC2(CN(CCC(F)(F)F)CCO2)C1 (stereo not given) | 4.91%
CO[C@@H]1CCN(Cc2cnn(C)c2)[C@@H]2CN(Cc3cccnc3)C[C@@H]21 | -9.6%
COc1ccc(CN2CCn3c(CO)nnc3C2)cc1CN1CCCC1 | 2.95%
Cc1ccc(CN(CCCn2ccnc2)Cc2c(F)cccc2F)s1 | 24%
Cc1ccc(CN(CCCn2ccnc2)Cc2cnn(C)c2)s1 | 25.9%
Cc1ccc(O)c(CN(CCCn2ccnc2)Cc2ccc(C)s2)c1 | 0.701%
Cc1ccc(CN(CCCn2ccnc2)Cc2c[nH]nc2C(C)(C)C)s1 | -0.375%
